Here are results for four sequences from patent US20070128217A1 (priority 2003, published 2007).

In assay [1] the test system is antibodies in sera from SARS patients (sera 1a, 1b, 2, 6, 37, 62, London, SARS-yellow, SARS-green). The format is binding, human. More on the design: Binding of serum 6 to linear peptides of protein X1 of SARS-CoV Urbani / Binding of serum 37 to linear peptides of protein X1 of SARS-CoV Urbani / Binding of serum 6 to looped/cyclic peptide (PEPSCAN-ELISA) / Binding of serum 37 to looped/cyclic peptide (PEPSCAN-ELISA) / Binding of serum 37 to looped/cyclic peptides of protein X1 of SARS-CoV Urbani / Binding of serum 6 to linear peptides of protein X2 / Binding of serum 37 to linear peptides of protein X2 / Binding of serum 37 to looped/cyclic peptides of protein X2 of SARS-CoV Urbani / Binding of serum 6 to linear peptides of protein M of SARS-CoV Urbani / Binding of serum 37 to linear peptides of protein M of SARS-CoV Urbani / Binding of serum 6 to looped/cyclic peptides of protein M of SARS-CoV Urbani / Binding of serum 37 to looped/cyclic peptides of protein M of SARS-CoV Urbani / Binding of serum 6 to linear peptides of protein X3 of SARS-CoV Urbani / Binding of serum 37 to linear peptides of protein X3 of SARS-CoV Urbani / Binding of serum 37 to looped/cyclic peptides of protein X3 of SARS-CoV Urbani / Binding of serum 6 to linear peptides of protein X4 of SARS-CoV Urbani / Binding of serum 37 to linear peptides of protein X4 of SARS-CoV Urbani / Binding of serum 37 to looped/cyclic peptides of protein X4 of SARS-CoV Urbani / Binding of serum 6 to linear peptides of protein X5 of SARS-CoV Urbani / Binding of serum 37 to linear peptides of protein X5 of SARS-CoV Urbani / Binding of serum 37 to looped/cyclic peptides of protein X5 of SARS-CoV Urbani / Binding of serum 6 to linear peptides of protein N of SARS-CoV Urbani / Binding of serum 37 to linear peptides of protein N of SARS-CoV Urbani / Binding of serum 6 to linear peptide (PEPSCAN-ELISA) / Binding of serum 1a to looped/cyclic peptides of protein N of SARS-CoV Urbani / Binding of serum 1b to looped/cyclic peptides of protein N of SARS-CoV Urbani / Binding of serum 2 to looped/cyclic peptides of protein N of SARS-CoV Urbani / Binding of serum 6 to looped/cyclic peptides of protein N of SARS-CoV Urbani / Binding of serum 37 to looped/cyclic peptides of protein N of SARS-CoV Urbani / Binding of serum 62 to looped/cyclic peptides of protein N of SARS-CoV Urbani / Binding of serum London to looped/cyclic peptides of protein N of SARS-CoV Urbani / Binding of serum SARS-green to looped/cyclic peptides of protein N of SARS-CoV Urbani: unit not given here.

Assay [2] has as its system rabbit serum obtained by immunizing a rabbit with the SARS-CoV strain Frankfurt 1. Type of assay: binding. More on the design: Binding of a rabbit serum to linear peptides / Binding of a rabbit serum to looped peptides / Rabbit serum linear peptides / Rabbit serum looped peptides / Binding of a rabbit serum to linear peptides of protein N of SARS-CoV Urbani (Rabbit serum linear peptides) / Binding of a rabbit serum to looped/cyclic peptides of protein N of SARS-CoV Urbani (Rabbit serum looped peptides): unit not given here.

The subject of assay [3] is control sera (pooled serum of ten healthy LUMC hospital workers; commercial negative donor pooled serum from the Dutch bloodbank). Type of assay: binding, human. More on the design: Binding of Control serum LUMC to linear peptides / Binding of Control serum Blood-bank to linear peptides / Binding of Control serum LUMC to looped peptides / Binding of Control Serum Blood-Bank to Looped peptides / Binding of Control serum LUMC to linear peptides of the protein M of SARS-CoV Urbani / Binding of Control serum Blood-bank to linear peptides of the protein M of SARS-CoV Urbani / Binding of Control serum LUMC to looped peptides of the protein M of SARS-CoV Urbani / Binding of Control Serum Blood-Bank to Looped peptides of the protein M of SARS-CoV Urbani: unit not given here.

Take YNSVTDTIVVTEGDG: in assay [1], the “Binding of serum 1a to linear peptides of protein X1 of SARS-CoV Urbani” value is given as 0.6, the “Binding of serum 1a to looped/cyclic peptides of protein X1 of SARS-CoV Urbani” value is on record as 0.4, the “Binding of serum 1b to linear peptides of protein X1 of SARS-CoV Urbani” value is on record as 0.5 and the “Binding of serum 1b to looped/cyclic peptides of protein X1 of SARS-CoV Urbani” value is reported as 0.3. In assay [1], the “Binding of serum 2 to linear peptides of protein X1 of SARS-CoV Urbani” value is 0.4, the “Binding of serum 2 to looped/cyclic peptides of protein X1 of SARS-CoV Urbani” value was found to be 0.2, the “Binding of serum 6 to linear peptides of protein X1 of SARS-CoV Urbani” value is on record as 0.4 and the “Binding of serum 6 to looped/cyclic peptides of protein X1 of SARS-CoV Urbani” value is reported as 0.2. Also, in assay [1], the “Binding of serum 37 to linear peptides of protein X1 of SARS-CoV Urbani” value came to 0.5, the “Binding of serum 37 to looped/cyclic peptides of protein X1 of SARS-CoV Urbani” value was 0.4, the “Binding of serum 62 to linear peptides of protein X1 of SARS-CoV Urbani” value came out at 0.5 and the “Binding of serum 62 to looped/cyclic peptides of protein X1 of SARS-CoV Urbani” value was determined as 0.3. Moreover, in assay [1], the “Binding of serum London to linear peptides of protein X1 of SARS-CoV Urbani” value is on record as 0.2, the “Binding of serum London to looped/cyclic peptides of protein X1 of SARS-CoV Urbani” value was found to be 0.2, the “Binding of serum SARS-green to linear peptides of protein X1 of SARS-CoV Urbani” value turned out to be 0.3 and the “Binding of serum SARS-green to looped/cyclic peptides of protein X1 of SARS-CoV Urbani” value was 0.3. For the same sequence, in assay [1], the “Binding of serum SARS-yellow to linear peptides of protein X1 of SARS-CoV Urbani” value was determined as 0.4 and the “Binding of serum SARS-yellow to looped/cyclic peptides of protein X1 of SARS-CoV Urbani” value was 0.3. In addition, in assay [2], the “Binding of a rabbit serum to linear peptides” value is recorded as 0.1 and the “Binding of a rabbit serum to looped peptides” value is on record as 0.5. Also, in assay [3], the “Binding of Control Serum Blood-Bank to Looped peptides” value is listed as 0.3, the “Binding of Control serum Blood-bank to linear peptides” value is recorded as 0.4, the “Binding of Control serum LUMC to linear peptides” value was found to be 0.4 and the “Binding of Control serum LUMC to looped peptides” value turned out to be 0.4.

As to YQLESTQITTDTGIE, in assay [1], the “Binding of serum 1a to linear peptides of protein X1 of SARS-CoV Urbani” value turned out to be 0.6, the “Binding of serum 1a to looped/cyclic peptides of protein X1 of SARS-CoV Urbani” value worked out at 0.4, the “Binding of serum 1b to linear peptides of protein X1 of SARS-CoV Urbani” value came out at 0.5 and the “Binding of serum 1b to looped/cyclic peptides of protein X1 of SARS-CoV Urbani” value was 0.3. Further, in assay [1], the “Binding of serum 2 to linear peptides of protein X1 of SARS-CoV Urbani” value is on record as 0.4, the “Binding of serum 2 to looped/cyclic peptides of protein X1 of SARS-CoV Urbani” value is recorded as 0.1, the “Binding of serum 6 to linear peptides of protein X1 of SARS-CoV Urbani” value is reported as 0.5 and the “Binding of serum 6 to looped/cyclic peptides of protein X1 of SARS-CoV Urbani” value amounted to 0.1. In assay [1], the “Binding of serum 37 to linear peptides of protein X1 of SARS-CoV Urbani” value turned out to be 0.6, the “Binding of serum 37 to looped/cyclic peptides of protein X1 of SARS-CoV Urbani” value amounted to 0.3, the “Binding of serum 62 to linear peptides of protein X1 of SARS-CoV Urbani” value amounted to 0.5 and the “Binding of serum 62 to looped/cyclic peptides of protein X1 of SARS-CoV Urbani” value stood at 0.3. Further, in assay [1], the “Binding of serum London to linear peptides of protein X1 of SARS-CoV Urbani” value is on record as 0.2, the “Binding of serum London to looped/cyclic peptides of protein X1 of SARS-CoV Urbani” value was 0.1, the “Binding of serum SARS-green to linear peptides of protein X1 of SARS-CoV Urbani” value amounted to 0.4 and the “Binding of serum SARS-green to looped/cyclic peptides of protein X1 of SARS-CoV Urbani” value worked out at 0.2. Moreover, in assay [1], the “Binding of serum SARS-yellow to linear peptides of protein X1 of SARS-CoV Urbani” value amounted to 0.5 and the “Binding of serum SARS-yellow to looped/cyclic peptides of protein X1 of SARS-CoV Urbani” value is given as 0.2. For the same sequence, in assay [2], the “Binding of a rabbit serum to linear peptides” value came out at 0.1 and the “Binding of a rabbit serum to looped peptides” value amounted to 0.4. For the same sequence, in assay [3], the “Binding of Control Serum Blood-Bank to Looped peptides” value amounted to 0.3, the “Binding of Control serum Blood-bank to linear peptides” value is on record as 0.4, the “Binding of Control serum LUMC to linear peptides” value was 0.4 and the “Binding of Control serum LUMC to looped peptides” value is 0.4.

In the case of YQLRARSVSPKLFIR, in assay [1], the “Binding of serum 1a to linear peptides of protein X4 of SARS-CoV Urbani” value was 0.7, the “Binding of serum 1a to looped/cyclic peptides of protein X4 of SARS-CoV Urbani” value was determined as 0.7, the “Binding of serum 1b to linear peptides of protein X4 of SARS-CoV Urbani” value is given as 0.6 and the “Binding of serum 1b to looped/cyclic peptides of protein X4 of SARS-CoV Urbani” value was 0.4. In assay [1], the “Binding of serum 2 to linear peptides of protein X4 of SARS-CoV Urbani” value worked out at 0.6, the “Binding of serum 2 to looped/cyclic peptides of protein X4 of SARS-CoV Urbani” value amounted to 0.6, the “Binding of serum 6 to linear peptides of protein X4 of SARS-CoV Urbani” value stood at 0.7 and the “Binding of serum 6 to looped/cyclic peptides of protein X4 of SARS-CoV Urbani” value turned out to be 1.2. Further, in assay [1], the “Binding of serum 37 to linear peptides of protein X4 of SARS-CoV Urbani” value was 0.8, the “Binding of serum 37 to looped/cyclic peptides of protein X4 of SARS-CoV Urbani” value was 0.7, the “Binding of serum 62 to linear peptides of protein X4 of SARS-CoV Urbani” value is recorded as 0.7 and the “Binding of serum 62 to looped/cyclic peptides of protein X4 of SARS-CoV Urbani” value is 0.6. In assay [1], the “Binding of serum London to linear peptides of protein X4 of SARS-CoV Urbani” value came out at 0.8, the “Binding of serum London to looped/cyclic peptides of protein X4 of SARS-CoV Urbani” value is 1.4, the “Binding of serum SARS-green to linear peptides of protein X4 of SARS-CoV Urbani” value amounted to 0.7 and the “Binding of serum SARS-green to looped/cyclic peptides of protein X4 of SARS-CoV Urbani” value amounted to 0.4. In addition, in assay [1], the “Binding of serum SARS-yellow to linear peptides of protein X4 of SARS-CoV Urbani” value is listed as 0.6 and the “Binding of serum SARS-yellow to looped/cyclic peptides of protein X4 of SARS-CoV Urbani” value is recorded as 0.9. Also, in assay [2], the “Recognition of the peptide by the rabbit serum” value was “recognized”. Also, in assay [3], the “Binding of Control Serum Blood-Bank to Looped peptides” value is reported as 0.7, the “Binding of Control serum Blood-bank to linear peptides” value came out at 0.6, the “Binding of Control serum LUMC to linear peptides” value was found to be 0.6 and the “Binding of Control serum LUMC to looped peptides” value is 0.7.

For the sequence YSPLFLIVAALVFLI, in assay [1], the “Binding of serum 1a to linear peptides of protein X4 of SARS-CoV Urbani” value came out at 0.7, the “Binding of serum 1a to looped/cyclic peptides of protein X4 of SARS-CoV Urbani” value came out at 0.7, the “Binding of serum 1b to linear peptides of protein X4 of SARS-CoV Urbani” value is recorded as 0.3 and the “Binding of serum 1b to looped/cyclic peptides of protein X4 of SARS-CoV Urbani” value is reported as 0.3. For the same sequence, in assay [1], the “Binding of serum 2 to linear peptides of protein X4 of SARS-CoV Urbani” value worked out at 0.5, the “Binding of serum 2 to looped/cyclic peptides of protein X4 of SARS-CoV Urbani” value worked out at 0.6, the “Binding of serum 6 to linear peptides of protein X4 of SARS-CoV Urbani” value came out at 0.5 and the “Binding of serum 6 to looped/cyclic peptides of protein X4 of SARS-CoV Urbani” value is given as 0.4. In addition, in assay [1], the “Binding of serum 37 to linear peptides of protein X4 of SARS-CoV Urbani” value was 0.7, the “Binding of serum 37 to looped/cyclic peptides of protein X4 of SARS-CoV Urbani” value is listed as 0.6, the “Binding of serum 62 to linear peptides of protein X4 of SARS-CoV Urbani” value is 0.7 and the “Binding of serum 62 to looped/cyclic peptides of protein X4 of SARS-CoV Urbani” value stood at 0.6. Also, in assay [1], the “Binding of serum London to linear peptides of protein X4 of SARS-CoV Urbani” value is given as 0.7, the “Binding of serum London to looped/cyclic peptides of protein X4 of SARS-CoV Urbani” value is listed as 0.3, the “Binding of serum SARS-green to linear peptides of protein X4 of SARS-CoV Urbani” value came out at 0.5 and the “Binding of serum SARS-green to looped/cyclic peptides of protein X4 of SARS-CoV Urbani” value is reported as 0.6. Besides, in assay [1], the “Binding of serum SARS-yellow to linear peptides of protein X4 of SARS-CoV Urbani” value is reported as 0.4 and the “Binding of serum SARS-yellow to looped/cyclic peptides of protein X4 of SARS-CoV Urbani” value is listed as 0.4. Besides, in assay [2], the “Rabbit serum linear peptides” value came to 0.3 and the “Rabbit serum looped peptides” value is reported as 0.5. In addition, in assay [3], the “Binding of Control Serum Blood-Bank to Looped peptides” value was found to be 0.4, the “Binding of Control serum Blood-bank to linear peptides” value is on record as 0.6, the “Binding of Control serum LUMC to linear peptides” value is 0.5 and the “Binding of Control serum LUMC to looped peptides” value is on record as 0.7.
